In PMC3624797 (Journal of Medicinal Chemistry, 2013):

Key:
[1] = Metabolic stability in human liver microsomes; assay type: in vitro ADME
Oral exposure in mice = assay type: in vivo, mouse; conditions: single oral dose 50 mg/kg, suspension in PEG400, after ∼5 h
[2] = Blood and plasma stability; assay type: in vitro ADME; conditions: rat blood and plasma, over 4 h at 37 °C
[3] = Tolerability observed in rat PK studies; assay type: in vivo; conditions: rats; for hemolysis: dosed iv, most likely arising from the vehicle; for signs of toxicity: orally or ip at doses up to ∼20 mg/kg
Chemical stability = assay type: physicochemical
[4] = rat dosed intravenously
in vivo = conditions: male, Sprague Dawley, rat, plasma
[5] = Metabolic stability in mouse liver microsomes; assay type: in vitro ADME; conditions: for metabolic stability (in words): incubated with mouse liver microsomes
[6] = Metabolic stability in rat liver microsomes; assay type: in vitro ADME

CCOC(=O)C1=C(C)N/C(=C/c2cc(C)n(-c3ccccc3C(F)(F)F)c2C)C1=O [Compound 8a, Ethyl (5E)-5-[[2,5-dimethyl-1-[2-(trifluoromethyl)phenyl]pyrrol-3-yl]methylene]-2-methyl-4-oxo-1H-pyrrole-3-carboxylate]
metabolites detected [1]: none | plasma levels (Oral exposure in mice): < 10 nM | hydrolyzed to the acid 10c [2]: ~25% | hemolysis [3]: slight degree of hemolysis | signs of toxicity [3]: No sign of toxicity | chemical stability (in words) (Chemical stability): fairly resistant to chemical hydrolysis | glutathione conjugation adducts in urine [4]: no adducts resulting from conjugation with glutathione were detected | half-life (in vivo): ≥ 8 h

CCOC(=O)C1=C(C)N/C(=C/c2cc(C)n(-c3ccc(CN(C)C)cc3)c2C)C1=O [Compound 8aa]
metabolic stability (in words) [5]: slightly more stable

CCOC(=O)C1=C(C)N/C(=C/c2cc(C)n(-c3ccc(C(F)(F)F)cc3)c2C)C1=O [Compound 8b, Ethyl (5E)-5-[[2,5-Dimethyl-1-[4-(trifluoromethyl)phenyl]pyrrol-3-yl]methylene]-2-methyl-4-oxo-1H-pyrrole-3-carboxylate]
metabolites detected ([5]; mouse liver microsomes (Table 6)): none | half-life at 1 μM [1]: 0.583 h | metabolites detected [1]: none | metabolites detected [6]: none | hemolysis [3]: slight degree of hemolysis | signs of toxicity [3]: No sign of toxicity | half-life (in vivo): ≥ 8 h

CCOC(=O)C1=C(C)N/C(=C/c2cc(C)n(-c3ccc(N4CCOCC4)cc3)c2C)C1=O [Compound 8u]
metabolic stability (in words) [5]: slightly more stable

CCOC(=O)C1=C(C)N/C(=C/c2ccn(-c3ccccc3C(F)(F)F)c2)C1=O [Compound 9a]
metabolic stability (in words) [5]: even lower metabolic stability

CCOC(=O)C1=C(C)N/C(=C/c2ccn(-c3ccc(C(F)(F)F)cc3)c2)C1=O [Compound 9b]
metabolic stability (in words) [5]: even lower metabolic stability

CCOC(=O)C1=C(C)N/C(=C/c2cc(CC)n(-c3ccccc3C(F)(F)F)c2CC)C1=O [Compound 9c, Ethyl (5E)-5-[[2,5-Diethyl-1-[2-(trifluoromethyl)phenyl]pyrrol-3-yl]methylene]-2-methyl-4-oxo-1H-pyrrole-3-carboxylate]
metabolic stability (in words) [5]: even lower metabolic stability

CC1=CC(=O)/C(=C\c2cc(C)n(-c3ccccc3C(F)(F)F)c2C)N1 [Compound 10d]
metabolic stability (in words) [5]: slightly more stable

CCOC(=O)C1=C(C)NC(Cc2cc(C)n(-c3ccccc3C(F)(F)F)c2C)C1=O (stereo not shown) [Compound 11b]
chemical stability (in words) (Chemical stability): less stable chemically
